Experiments:
Type in all cases: cell-based, human
SNB-19 = system: SNB-19
Outline: (§1)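 Screening via NCI-60, five log concentrations from 0.01 to 100 μM; TGI compared by COMPARE with reference tubulin agents.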

MALME-3M = system: MALME-3M
Outline: (§2)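 First, compounds went into the NCI-60 cell panel. Next, they were dosed at 0.01, 0.1, 1, 10 and 100 μM. Finally, TGI levels fed a COMPARE analysis against prior tubulin-inhibitor data.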

RPMI-8226 = system: RPMI-8226
Outline: as §2

HS 578T = system: HS 578T
Outline: as §2

UACC-62 = system: UACC-62
Outline: as §1

PC-3 = system: PC-3
Outline: as §1

TK-10 = system: TK-10
Outline: as §1

OVCAR-8 = system: OVCAR-8
Outline: as §2

SR = system: SR
Outline: (§3)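 TGI-based COMPARE analysis set the response profiles against historical NCI-60 data for established antitubulin compounds, after testing at five log-spaced doses (0.01–100 μM) in the 60-line screen.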

SNB-75 = system: SNB-75
Outline: as §2

HL-60(TB) = system: HL-60(TB)
Outline: as §3

SK-MEL-5 = system: SK-MEL-5
Outline: as §2

LOX IMVI = system: LOX IMVI
Outline: as §1

MDA-MB-435 = system: MDA-MB-435
Outline: as §1

786-0 = system: 786-0
Outline: as §2

MOLT-4 = system: MOLT-4
Outline: as §2

A549/ATCC = system: A549/ATCC
Outline: as §2

EKVX = system: EKVX
Outline: as §1

T-47D = system: T-47D
Outline: as §2

HOP-62 = system: HOP-62
Outline: as §1

MDA-MB-231/ATCC = system: MDA-MB-231/ATCC
Outline: as §2

NCI-H522 = system: NCI-H522
Outline: as §2

NCI-H460 = system: NCI-H460
Outline: as §2

K-562 = system: K-562
Outline: as §2

HOP-92 = system: HOP-92
Outline: as §2

COLO 205 = system: COLO 205
Outline: as §2

IGROV1 = system: IGROV1
Outline: as §2

SN12C = system: SN12C
Outline: as §2

`COc1cc(C)c(-c2ccc(OC)c(=O)cc2C)c(OC)c1OC` (single isomer, unassigned) [(aS)-6] gave a Log10GI50 (SNB-19) of over -4.00 Molar, a Log10LC50 (SNB-19) of over -4.00 Molar and a Log10TGI (SNB-19) of over -4.00 Molar. For the same molecule, the Log10GI50 (MALME-3M) was over -4.00 Molar, the Log10LC50 (MALME-3M) was over -4.00 Molar and the Log10TGI (MALME-3M) was over -4.00 Molar. For the same molecule, the Log10GI50 (RPMI-8226) was over -4.00 Molar, the Log10LC50 (RPMI-8226) was over -4.00 Molar and the Log10TGI (RPMI-8226) was over -4.00 Molar. It also gave a Log10GI50 (HS 578T) of over -4.00 Molar, a Log10LC50 (HS 578T) of over -4.00 Molar and a Log10TGI (HS 578T) of over -4.00 Molar. The Log10GI50 (UACC-62) was over -4.00 Molar, the Log10LC50 (UACC-62) was over -4.00 Molar and the Log10TGI (UACC-62) was over -4.00 Molar. For the same molecule, the Log10GI50 (PC-3) was over -4.00 Molar, the Log10LC50 (PC-3) was over -4.00 Molar and the Log10TGI (PC-3) was over -4.00 Molar. The Log10GI50 (TK-10) was over -4.00 Molar, the Log10LC50 (TK-10) was over -4.00 Molar and the Log10TGI (TK-10) was over -4.00 Molar. It also gave a Log10GI50 (OVCAR-8) of over -4.00 Molar, a Log10LC50 (OVCAR-8) of over -4.00 Molar and a Log10TGI (OVCAR-8) of over -4.00 Molar. The Log10GI50 (SR) was over -4.00 Molar, the Log10LC50 (SR) was over -4.00 Molar and the Log10TGI (SR) was over -4.00 Molar. For the same molecule, the Log10GI50 (SNB-75) was over -4.00 Molar, the Log10LC50 (SNB-75) was over -4.00 Molar and the Log10TGI (SNB-75) was over -4.00 Molar. The Log10GI50 (HL-60(TB)) was over -4.00 Molar, the Log10LC50 (HL-60(TB)) was over -4.00 Molar and the Log10TGI (HL-60(TB)) was over -4.00 Molar. For the same molecule, the Log10GI50 (SK-MEL-5) was over -4.00 Molar, the Log10LC50 (SK-MEL-5) was over -4.00 Molar and the Log10TGI (SK-MEL-5) was over -4.00 Molar. It also gave a Log10GI50 (LOX IMVI) of over -4.00 Molar, a Log10LC50 (LOX IMVI) of over -4.00 Molar and a Log10TGI (LOX IMVI) of over -4.00 Molar. It also gave a Log10GI50 (MDA-MB-435) of -4.14 Molar, a Log10LC50 (MDA-MB-435) of over -4.00 Molar and a Log10TGI (MDA-MB-435) of over -4.00 Molar. For the same molecule, the Log10GI50 (786-0) was over -4.00 Molar, the Log10LC50 (786-0) was over -4.00 Molar and the Log10TGI (786-0) was over -4.00 Molar. The Log10GI50 (MOLT-4) was over -4.00 Molar, the Log10LC50 (MOLT-4) was over -4.00 Molar and the Log10TGI (MOLT-4) was over -4.00 Molar. It also gave a Log10GI50 (A549/ATCC) of over -4.00 Molar, a Log10LC50 (A549/ATCC) of over -4.00 Molar and a Log10TGI (A549/ATCC) of over -4.00 Molar. It also gave a Log10GI50 (EKVX) of over -4.00 Molar, a Log10LC50 (EKVX) of over -4.00 Molar and a Log10TGI (EKVX) of over -4.00 Molar. The Log10GI50 (T-47D) was over -4.00 Molar, the Log10LC50 (T-47D) was over -4.00 Molar and the Log10TGI (T-47D) was over -4.00 Molar. For the same molecule, the Log10GI50 (HOP-62) was over -4.00 Molar, the Log10LC50 (HOP-62) was over -4.00 Molar and the Log10TGI (HOP-62) was over -4.00 Molar. For the same molecule, the Log10GI50 (MDA-MB-231/ATCC) was over -4.00 Molar, the Log10LC50 (MDA-MB-231/ATCC) was over -4.00 Molar and the Log10TGI (MDA-MB-231/ATCC) was over -4.00 Molar. For the same molecule, the Log10GI50 (NCI-H522) was over -4.00 Molar, the Log10LC50 (NCI-H522) was over -4.00 Molar and the Log10TGI (NCI-H522) was over -4.00 Molar. It also gave a Log10GI50 (NCI-H460) of over -4.00 Molar, a Log10LC50 (NCI-H460) of over -4.00 Molar and a Log10TGI (NCI-H460) of over -4.00 Molar. The Log10GI50 (K-562) was -4.38 Molar, the Log10LC50 (K-562) was over -4.00 Molar and the Log10TGI (K-562) was over -4.00 Molar. The Log10GI50 (HOP-92) was -4.65 Molar, the Log10LC50 (HOP-92) was over -4.00 Molar and the Log10TGI (HOP-92) was over -4.00 Molar. The Log10GI50 (COLO 205) was over -4.00 Molar, the Log10LC50 (COLO 205) was over -4.00 Molar and the Log10TGI (COLO 205) was over -4.00 Molar. For the same molecule, the Log10GI50 (IGROV1) was over -4.00 Molar, the Log10LC50 (IGROV1) was over -4.00 Molar and the Log10TGI (IGROV1) was over -4.00 Molar. The Log10GI50 (SN12C) was over -4.00 Molar, the Log10LC50 (SN12C) was over -4.00 Molar and the Log10TGI (SN12C) was over -4.00 Molar.
